As usually defined, the Ki is the dissociation constant of the complex between target and ligand, obtained from inhibition or displacement. A higher Ki goes with weaker binding.

The structures appear in SMILES notation.

Bis(5'-adenosyl)-triphosphatase, sequence (P49789 whole entry): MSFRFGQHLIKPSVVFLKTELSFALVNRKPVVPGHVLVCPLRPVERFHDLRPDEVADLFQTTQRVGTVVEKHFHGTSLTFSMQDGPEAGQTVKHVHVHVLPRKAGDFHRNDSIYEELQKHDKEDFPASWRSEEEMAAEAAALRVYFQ

The target of the assay is Bis(5'-adenosyl)-triphosphatase (Homo sapiens, UniProt P49789). In words: Enzyme Inhibition Assay. An excerpt:
Inhibition assay using Fhit with ApppBODIPY.
With `Nc1ncnc2c1ncn2C1O[C@H](COP(=O)(O)OCP(O)(O)=COP(=O)(O)OCC2O[C@@H](n3cnc4c(N)ncnc43)[C@H](O)[C@@H]2O)[C@@H](O)[C@H]1O` (stereo partly specified) [AppppA analog, 5 (X=O)], the Ki turned out to be 1.5 µM.

Turning to `CC(COP(=O)(S)OCC1OC(n2cnc3c(N)ncnc32)C(O)C1O)COP(O)(=S)OCC1OC(n2cnc3c(N)ncnc32)C(O)C1O` (stereo unspecified) [AppppA analog, 7 (X=S)], the Ki was determined as 76 µM.

Compound `Nc1ncnc2c1ncn2C1OC(COP(=O)(S)OCC(COP(=O)(O)S)(COP(=O)(O)S)COP(O)(=S)OCC2OC(n3cnc4c(N)ncnc43)C(O)C2O)C(O)C1O` (stereo unspecified) [AppppA analog, 14 (X=S)] had a Ki of 0.7 µM.

In turn, `Nc1ncnc2c1ncn2C1O[C@H](COP(=O)(O)OCC(COP(=O)(O)OCC2O[C@@H](n3cnc4c(N)ncnc43)[C@H](O)[C@@H]2O)OP(=O)(O)O)[C@@H](O)[C@H]1O` (stereo partly specified) [AppppA analog, 17 (X=O)] registered a Ki of 0.42 µM.

Compound `Nc1ncnc2c1ncn2C1O[C@H](COP(=O)(O)OCC(COP(=O)(O)OCC2O[C@@H](n3cnc4c(N)ncnc43)[C@H](O)[C@@H]2O)OP(=O)(O)OC[C@H]2OC(n3cnc4c(N)ncnc43)[C@H](O)[C@@H]2O)[C@@H](O)[C@H]1O` (stereo partly specified) [AppppA analog, 15 (X=O)] had a Ki of 1.5 µM.

Regarding `Nc1ncnc2c1ncn2C1OC(COP(=O)(S)OCC(O)C(O)COP(O)(=S)OCC2OC(n3cnc4c(N)ncnc43)C(O)C2O)C(O)C1O` (stereo unspecified) [AppppA analog, 4 (X=S)], affinity was put at a Ki of 86 µM. This Ki is about 57-fold higher than that of the compound before.

Compound `Nc1ncnc2c1ncn2C1OC(COP(=O)(S)OCCCOP(O)(=S)OCC2OC(n3cnc4c(N)ncnc43)C(O)C2O)C(O)C1O` (stereo unspecified) [AppppA analog, 9 (X=S)] returned a Ki of 0.23 µM.

For the compound `Nc1ncnc2c1ncn2C1O[C@H](COP(=O)(S)NCCCNP(O)(=S)OCC2O[C@@H](n3cnc4c(N)ncnc43)[C@H](O)[C@@H]2O)[C@@H](O)[C@H]1O` (stereo partly specified) [AppppA analog, 10 (X=S)], the Ki stood at 3.3 µM.

`Nc1ncnc2c1ncn2C1OC(COP(=O)(S)SCCCSP(O)(=S)OCC2OC(n3cnc4c(N)ncnc43)C(O)C2O)C(O)C1O` (stereo unspecified) [AppppA analog, 11 (X=S)] registered a Ki of 5.2 µM. Compared with the last compound, the Ki is about 1.6-fold higher.

Compound `Nc1ncnc2c1ncn2C1OC(COP(=O)(S)OCC(COP(O)(=S)OCC2OC(n3cnc4c(N)ncnc43)C(O)C2O)OP(=O)(O)S)C(O)C1O` (stereo unspecified) [AppppA analog, 17 (X=S)] yielded a Ki of 0.11 µM.

The compound `Nc1ncnc2c1ncn2C1O[C@H](COP(O)(=S)OC=P(O)(O)COP(=O)(S)OCC2O[C@@H](n3cnc4c(N)ncnc43)[C@H](O)[C@@H]2O)[C@@H](O)[C@H]1O` (stereo partly specified) [AppppA analog, 5 (X=S)] had a Ki of 0.22 µM.

`Nc1ncnc2c1ncn2C1OC(COP(=O)(S)OCC(COP(O)(=S)OCC2OC(n3cnc4c(N)ncnc43)C(O)C2O)OP(=O)(S)OCC2OC(n3cnc4c(N)ncnc43)C(O)C2O)C(O)C1O` (stereo unspecified) [AppppA analog, 15 (X=S)] yielded a Ki of 0.078 µM. Against the preceding compound, the Ki is about 2.8-fold lower.

`Nc1ncnc2c1ncn2C1OC(COP(=O)(S)OCC(N)COP(O)(=S)OCC2OC(n3cnc4c(N)ncnc43)C(O)C2O)C(O)C1O` (stereo unspecified) [AppppA analog, 8 (X=S)] registered an inhibitory constant (Ki) of 3 µM.

As for `Nc1ncnc2c1ncn2C1OC(COP(=O)(O)OCC(COP(=O)(O)O)(COP(=O)(O)OCC2O[C@@H](n3cnc4c(N)ncnc43)[C@H](O)[C@@H]2O)COP(=O)(O)OC[C@H]2OC(n3cnc4c(N)ncnc43)[C@H](O)[C@@H]2O)[C@H](O)[C@@H]1O` (stereo partly specified) [AppppA analog, 12 (X=O)], the Ki stood at 1.5 µM. Compared with the last compound, the Ki is about 2-fold lower.

Turning to `Nc1ncnc2c1ncn2C1O[C@H](COP(=O)(O)OCC(O)COP(=O)(O)OCC2O[C@@H](n3cnc4c(N)ncnc43)[C@H](O)C2O)[C@@H](O)[C@H]1O` (stereo partly specified) [AppppA analog, 6 (X=O)], the Ki worked out at 4.7 µM.

Regarding `Nc1ncnc2c1ncn2C1OC(COP(=O)(S)OC(C(=O)O)C(OP(O)(=S)OCC2OC(n3cnc4c(N)ncnc43)C(O)C2O)C(=O)O)C(O)C1O` (stereo unspecified) [AppppA analog, 3 (X=S)], affinity was put at a Ki of 86 µM. This Ki is about 18-fold higher than that of the compound before.

`Nc1ncnc2c1ncn2C1O[C@H](COP(=O)(O)OCC(COP(=O)(O)O)(COP(=O)(O)O)COP(=O)(O)OCC2O[C@@H](n3cnc4c(N)ncnc43)[C@H](O)[C@@H]2O)[C@@H](O)[C@H]1O` (stereo partly specified) [AppppA analog, 14 (X=O)] displayed a Ki of 0.9 µM. Compared with the last compound, the Ki is about 96-fold lower.

With `Nc1ncnc2c1ncn2C1O[C@H](COP(=O)(S)NCC(CNP(O)(=S)OCC2O[C@@H](n3cnc4c(N)ncnc43)[C@H](O)[C@@H]2O)OP(=O)(S)OC[C@H]2OC(n3cnc4c(N)ncnc43)[C@H](O)[C@@H]2O)[C@@H](O)[C@H]1O` (stereo partly specified) [AppppA analog, 16 (X=S)], the Ki worked out at 2.7 µM.

`Nc1ncnc2c1ncn2C1OC(COP(=O)(S)OCC(COP(=O)(S)OCC2OC(n3cnc4c(N)ncnc43)C(O)C2O)(COP(=O)(S)OCC2OC(n3cnc4c(N)ncnc43)C(O)C2O)COP(O)(=S)OCC2OC(n3cnc4c(N)ncnc43)C(O)C2O)C(O)C1O` (stereo unspecified) [AppppA analog, 13 (X=S)]: the Ki stood at 0.065 µM. Against the preceding compound, the Ki is about 42-fold lower.

On to `Nc1ncnc2c1ncn2C1OC(COP(=O)(S)OCCOP(O)(=S)OCC2OC(n3cnc4c(N)ncnc43)C(O)C2O)C(O)C1O` (stereo unspecified) [AppppA analog, 2 (X=S)], for which the affinity corresponds to a Ki of 2.6 µM.

`Nc1ncnc2c1ncn2C1OC(COP(=O)(O)OCC(COP(=O)(O)OCC2O[C@@H](n3cnc4c(N)ncnc43)[C@H](O)[C@@H]2O)(COP(=O)(O)OCC2O[C@@H](n3cnc4c(N)ncnc43)[C@H](O)[C@@H]2O)COP(=O)(O)OC[C@H]2OC(n3cnc4c(N)ncnc43)[C@H](O)[C@@H]2O)[C@H](O)[C@@H]1O` (stereo partly specified) [AppppA analog, 13 (X=O)] registered a Ki of 3.2 µM.
